Measured values as given in paper PMC12505902, “Inhibitors of trehalose-6-phosphate synthase activity in fungal pathogens compromise thermal tolerance pathways” (mBio, 2025).

How the values were obtained:
C. deneoformans = assay: Zone of inhibition assay; type: cell-based
Description: To test this hypothesis, we performed zone of inhibition studies in the C. deneoformans background (Fig. S8A).
123 hours. All dose- response assays were performed in biological triplicate with a minimum of three
(§1) 124 technical replicates. Growth, as determined by a reading of absorbance at 600 nm, was
125 normalized to untreated controls and was corrected for the absorbance of 4456dh in the YPD
126 medium. Growth was plotted as a heat map using Excel.
127 Wild-t y pe C. neoformans strains H99, wild-type C. deneoformans JEC21 and wild- t y pe C. gattii
128 R265 were cultured overnight in YPD (yeast-peptone- dextrose) medium at 30 °C. Growth of the
(§2) 129 overnight cultures was quantified by measuring the OD600 and corrected for the background
130 absorbance of the medium. Antifungal potency for 4456dh was assessed by minimum inhibitory
131 concentration (MIC) dose-response assays performed under standard Clinical and Lab Standards […]
137 replicates. Growth, as determined by a reading of absorbance at 600 nm, was normalized to
138 untreated controls and was corrected for the absorbance of 4456dh in the YPD medium. […]
139 minimum inhibitory concentration causing 80% growth reduction, or MIC80, was determined based […]
149 mM 4456dh. The OD600 was determined followed by dilution of overnight cultures to an equivalent […]
157 Optical density (OD600) was determined with an Infinite PRO plate reader ( Tecan). […]

[1] = tested on: trehalose content of wild-type C. albicans; assay: Trehalose measurement (colorimetric glucose assay after trehalase); type: cell-based; conditions: 0.5 mM 4456dh
Description: Given that 4456dh inhibits the activity of CaTps1 and CnTps1 in vitro and has bioactivity against multiple Candida and Cryptococcus species, we tested whether 4456dh affects trehalose production in cells. We quantified trehalose levels in cells treated with 4456dh at sub-lethal concentrations as determined by the MIC assays using a colorimetric spectrophotometric assay. We measured trehalose production in wild-type C. albicans at 30°C and 42°C, in the presence and absence of 4456dh. […] However, we observed a significant increase in trehalose content when C. albicans was exposed to high temperature stress (P < 0.0001; Fig. 5A).
Fig 5 4456dh treatment results in reduced trehalose accumulation and a decrease in Tps1-dependent virulence factors. […] Trehalose was measured using a colorimetric glucose assay after treatment of cultures with trehalase. […] Cells were harvested, stained in India Ink, and analyzed using differential interference contrast imaging. […]
as §1
125 normalized to untreated controls and was corrected for the absorbance of 4456dh in the YPD […]
as §2
130 absorbance of the medium. Antifungal potency for 4456dh was assessed by minimum inhibitory […]

Cn1cc(-c2csc(NC(=O)Cc3ccccn3)n2)cn1 [Compound 4456dh]
zone of inhibition (C. deneoformans; C. deneoformans tps1Δ cells, 30°C): diffuse yet visible zone of inhibition
zone of inhibition (C. deneoformans; C. deneoformans wild-type (JEC21, JEC20), 37°C): distinct zone of inhibition
change in trehalose content ([1]; 30°C): no significant change detected
change in trehalose content ([1]; 42°C): approximate twofold decrease
